Laboratory results taken from patent US20170029355A1, “LABILE ESTERS OF AGROCHEMICALS FOR CONTROLLED RELEASE AND REDUCTION OF OFF-SITE MOVEMENT” (Monsanto Technology LLC, priority 2011, published 2017).
Like-named read-outs stand apart in the source and are kept apart here.

Experiments:
soybeans = assay: Humidome volatility injury, ester 32a emulsifiable concentrate (Example 32); details: humidome, dicamba 0.6% and glyphosate 1.2% acid equivalent, 14 days after treatment
Excerpt: […] The mixtures were sprayed at a 10 gallon per acre (93.5 liters per hectare) rate on soil in a plastic container (“humidome”) with a transparent lid. One soil container was sprayed with water as a control. Four glyphosate-tolerant, dicamba-sensitive soy plants between V2 and V3 stage were immediately placed on the sprayed soil and the domes attached to the trays with binder clips. The soy plants were in pots placed directly on the soil but with aluminum foil wrapped around the bottom to prevent uptake of dicamba or dicamba esters through the roots.
The closed containers were held for 24 hours in a growth chamber which was maintained at 35° C. with 40% relative humidity. […] At this time plant injury and growth stage were assessed compared to the control treated with water only.

[1] = In vitro photo-release and hydrolytic release of dicamba in an aqueous medium (Example 35); assay type: physicochemical; details: 0.01 mM ester, 35° C.
Protocol: This Example describes the determination of photo-lability and hydrolytic lability of dicamba esters in an aqueous medium. 1 mM solutions of the esters were prepared in acetonitrile (or […] solutions of dicamba diesters). The solutions were then diluted with deionized water to a concentration of 0.01 mM (or 0.005 mM for diesters). The solutions were then transferred to quartz tubes and amber bottles and held in a growth chamber by the procedure of Example 26. A 14-hour day was generally used at a constant temperature of 35° C. Hydrolytic activity was assessed by measuring the increase in dicamba concentration after day zero in the amber (dark) bottles. […] Photolysis manifested itself as increased conversion in the quartz tubes compared to the dark control.

velvetleaf [2] = assay: Greenhouse post-emergent control of velvetleaf by emulsifiable concentrates (Example 37); assay type: in vivo; details: for pest or weed control at 140 g/ha / pest or weed control at 280 g/ha / pest or weed control at 420 g/ha / pest or weed control at 560 g/ha: Abutilon theophrasti, post-emergence, 504 h; for pest or weed control at 140 g/ha: read-out: % Control of velvetleaf, 140 g/ha; for pest or weed control at 280 g/ha: read-out: % Control of velvetleaf, 280 g/ha; for pest or weed control at 420 g/ha: read-out: % Control of velvetleaf, 420 g/ha; for pest or weed control at 560 g/ha: read-out: % Control of velvetleaf, 560 g/ha
In short: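 Photo-labile dicamba ester emulsifiable concentrates sprayed post-emergence in the greenhouse on velvetleaf 10-15 cm tall at 140, 280, 420 and 560 g dicamba equivalent per hectare. Percent control scored three weeks after treatment.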

hemp sesbania = assay: Field testing of emulsifiable concentrates, post-emergent control (Example 40); assay type: in vivo; details: for % control 19 days after treatment, 280 g/ha, Hemp sesbania: 280 g dicamba acid equivalent per hectare; for % control 19 days after treatment, 560 g/ha, Hemp sesbania: 560 g dicamba acid equivalent per hectare
Protocol: (§1) Three dicamba esters, 30a, 32a, and 36a, were formulated as emulsifiable concentrates for field testing. All surfactants are commercial materials from Stepan.
(§2) The formulations were tested in the field. Locations and timing were identical for the three esters, but differed slightly for the diglycolamine control. The esters were compared to the diglycolamine salt of dicamba (CLARITY™) for post-emergent control of three broadleaf weeds: velvetleaf, morning glory, and hemp sesbania. Rates of 280 and 560 g dicamba acid equivalent per hectare were used.

morning glory = assay: as above; assay type: in vivo; details: for % control 19 days after treatment, 280 g/ha, Morning glory: 280 g dicamba acid equivalent per hectare; for % control 19 days after treatment, 560 g/ha, Morning glory: 560 g dicamba acid equivalent per hectare
Protocol: as §1, §2

velvetleaf [3] = assay: as above; assay type: in vivo; details: for % control 19 days after treatment, 280 g/ha, Velvetleaf: 280 g dicamba acid equivalent per hectare; for % control 19 days after treatment, 560 g/ha, Velvetleaf: 560 g dicamba acid equivalent per hectare
Protocol: as §1, §2

[4] = test system: three broadleaf weeds: velvetleaf, morning glory, and hemp sesbania; assay: Field testing of Example 40, overall post-emergent activity in words; assay type: in vivo; details: 280 and 560 g dicamba acid equivalent per hectare
Protocol: as §1, §2

broadleaf weeds = assay: Control of broadleaf weeds by ester concentrates (statements of the description); assay type: in vivo; details: emulsifiable and suspension concentrates; Sesbania macrocarpa, morning glory, velvetleaf, Palmer amaranth, fat hen, sicklepod

Row | Compound | Conversion to Dicamba, Dark, Day 0 ([1]; amber (dark) bottle) [%] | Conversion to Dicamba, Dark, Day 3 ([1]; amber (dark) bottle) [%] | Conversion to Dicamba, Dark, Day 14 ([1]; amber (dark) bottle) [%] | Conversion to Dicamba, Dark, Day 21 ([1]; amber (dark) bottle) [%] | Conversion to Dicamba, Dark, Day 28 ([1]; amber (dark) bottle) [%] | Conversion to Dicamba, Light, Day 0 ([1]; quartz tube, 14-hour day) [%] | Conversion to Dicamba, Light, Day 3 ([1]; quartz tube, 14-hour day) [%] | Conversion to Dicamba, Light, Day 14 ([1]; quartz tube, 14-hour day) [%] | Conversion to Dicamba, Light, Day 21 ([1]; quartz tube, 14-hour day) [%] | Conversion to Dicamba, Light, Day 28 ([1]; quartz tube, 14-hour day) [%] | % control 19 days after treatment, 280 g/ha, Hemp sesbania (hemp sesbania) [%] | % control 19 days after treatment, 560 g/ha, Hemp sesbania (hemp sesbania) [%] | % control 19 days after treatment, 280 g/ha, Morning glory (morning glory) [%] | % control 19 days after treatment, 560 g/ha, Morning glory (morning glory) [%] | % control 19 days after treatment, 280 g/ha, Velvetleaf (velvetleaf [3]) [%] | % control 19 days after treatment, 560 g/ha, Velvetleaf (velvetleaf [3]) [%] | post-emergent activity compared with the dicamba salt, in words [4] | control of a number of broadleaf weeds in field testing, in words (broadleaf weeds) | further results
1 | COc1c(Cl)ccc(Cl)c1C(=O)Oc1ccc(=O)n(CCC(C)=O)n1 [Ester 32a] | 5 | 17 | 41 | 55 | 70 | 5 | 18 | 44 | 50 | 59 | 76 ± 5 | 91 ± 8 | 70 ± 24 | 87 ± 10 | 59 ± 28 | 68 ± 26 | intermediate activity | proven effective | average injury to soybeans (soybeans): 19%; Conversion to Dicamba, Dark, Day 1 ([1]; amber (dark) bottle, Day 1): 12%; Conversion to Dicamba, Dark, Day 2 ([1]; amber (dark) bottle, Day 2): 14%; Conversion to Dicamba, Dark, Day 4 ([1]; amber (dark) bottle, Day 4): 22%; Conversion to Dicamba, Dark, Day 7 ([1]; amber (dark) bottle, Day 7): 34%; Conversion to Dicamba, Light, Day 1 ([1]; quartz tube, 14-hour day, Day 1): 14%; Conversion to Dicamba, Light, Day 2 ([1]; quartz tube, 14-hour day, Day 2): 16%; Conversion to Dicamba, Light, Day 4 ([1]; quartz tube, 14-hour day, Day 4): 22%; Conversion to Dicamba, Light, Day 7 ([1]; quartz tube, 14-hour day, Day 7): 27%; pest or weed control at 140 g/ha (velvetleaf [2]): 12.5%; pest or weed control at 280 g/ha (velvetleaf [2]): 19.2%; pest or weed control at 420 g/ha (velvetleaf [2]): 33.3%; pest or weed control at 560 g/ha (velvetleaf [2]): 37.5%; post-emergent efficacy on velvetleaf compared with the salt, in words (velvetleaf [2]; greenhouse, emulsifiable concentrates): reduced post-emergent efficacy
2 | COc1ccc(OC(=O)c2c(Cl)ccc(Cl)c2OC)cc1 [Ester 30a, 4-methoxyphenyl ester of dicamba] | 6 | 5 | 17 | 17 | 19 | 6 | 14 | 23 | 29 | 36 | 50 ± 20 | 67 ± 13 | 79 ± 7 | 78 ± 10 | 56 ± 25 | 65 ± 25 | less efficacious | proven effective | pest or weed control at 140 g/ha (velvetleaf [2]; greenhouse, 140 g/ha, Example 37): 19.2%; pest or weed control at 280 g/ha (velvetleaf [2]; greenhouse, 280 g/ha, Example 37): 12.5%; pest or weed control at 420 g/ha (velvetleaf [2]; greenhouse, 420 g/ha, Example 37): 18.3%; pest or weed control at 560 g/ha (velvetleaf [2]; greenhouse, 560 g/ha, Example 37): 15%
